Reference: the NIST ThermoML archive (doi:10.1021/je050054u)

Conditions: Liquid, Closed cell (Static) method

CCF [fluoroethane]
Conditions	vapor or sublimation pressure [kPa]
235.69 K	101.5
235.74 K	101.7
235.79 K	101.9
235.84 K	102.2
235.89 K	102.4
235.94 K	102.6
236 K	102.9
236.09 K	103.4
237.11 K	108.3
238.07 K	113.3
240.11 K	124.1
242.12 K	135.4
244.1 K	147.6
245.09 K	153.8
247.09 K	167.1
249.1 K	181.5
251.07 K	196.3
253.11 K	212.7
255.11 K	229.7
257.13 K	247.8
259.11 K	267.6
261.11 K	288
263.12 K	309.5
264.11 K	320.7
265.1 K	332.4
266.12 K	344.5
267.13 K	356.6
268.13 K	369.1
269.13 K	382
270.13 K	395.3
271.13 K	408.8
272.15 K	422.9
273.12 K	436.7
274.11 K	451.2
275.11 K	466
276.14 K	481.8
277.14 K	497.5
278.17 K	513.9
279.14 K	529.9
280.13 K	546.6
281.13 K	563.9
282.16 K	581.9
283.14 K	599.6
285.18 K	636.5
287.13 K	675.1
288.13 K	695.2
290.14 K	737.5
292.01 K	777.9
294.03 K	824.2
296.04 K	871.8
298.07 K	921.9
300.05 K	972.9
302 K	1024.9
304.03 K	1081.4
306.12 K	1141.9
308.08 K	1200.9
310.32 K	1270.6
312.19 K	1330.5
314.18 K	1398.1
316.32 K	1472.8
316.33 K	1473.6
318.17 K	1539.8
320.14 K	1613.2
322.13 K	1690.2
324.12 K	1770.2
326.11 K	1852.2
328.13 K	1938.9
330.15 K	2027
332.15 K	2119.3
333.15 K	2167.4
334.16 K	2215.1
335.15 K	2263.9
336.15 K	2313.2
337.15 K	2363.2
338.16 K	2414.5
339.15 K	2465.8
340.16 K	2518.5
341.15 K	2572
342.15 K	2626.3
343.15 K	2681.7
344.14 K	2737.4
345.15 K	2794.3
346.15 K	2852.2
347.15 K	2910.8
348.15 K	2970.7
349.15 K	3030.8
350.15 K	3092.2
351.15 K	3154.5
352.15 K	3218
353.14 K	3282
354.15 K	3347.6
355.15 K	3414.2
356.15 K	3481.2
357.14 K	3549.5
358.14 K	3619.1
359.14 K	3689.1
360.15 K	3761.3
361.15 K	3834
362.16 K	3908
363.14 K	3982.2
364.14 K	4058.4
364.15 K	4060.2
365.14 K	4138
366.15 K	4216.8
367.15 K	4295.8
368.16 K	4376.8
369.14 K	4460.1
370.14 K	4543.5
371.14 K	4627.6
372.14 K	4713.9
